Experimental data from patent publication US6187585A, “Oligonucleotide inhibition of epidermal growth factor receptor expression” (Isis Pharmaceuticals, Inc., priority 1999, dated 2001).
Strand notation (5' to 3'): a small letter for the sugar, then the base; units joined by * are phosphorothioate-linked, units joined directly phosphodiester-linked; [ ] holds rarer units or linkages, { } end groups; capitals alone tell only the bases. d = 2'-deoxy (DNA)

Columns and labels:
[1] = system: A431 cells; settings: cited from earlier work
[2] = system: EGFR tyrosine kinase; settings: cited from earlier work
[3] = system: EGFR mRNA; assay: EGFR mRNA inhibition, Northern blot, A549 human lung carcinoma cells; type: cell-based; settings: for % Inhibition of EGFR mRNA (10 kb band): 300 nM oligonucleotide, 15 μg/ml LIPOFECTIN, relative to untreated control, normalized to G3PDH
[4] = system: EGFR mRNA; assay: EGFR mRNA inhibition, Northern blot, SKOV3 human ovarian carcinoma cells; type: cell-based; settings: for % Inhibition of EGFR mRNA (10 kb band): 300 nM oligonucleotide, 15 μg/ml LIPOFECTIN, relative to untreated control, normalized to β-actin
[5] = system: EGFR mRNA; assay: EGFR mRNA, Northern blot, both cell types together (A549 and SKOV3); type: cell-based, human; settings: 300 nM
Method: SKOV3 and A549 cells were grown in T-75 flasks until 65-75% confluent. The cells were washed once with serum-free OPTI-MEM® medium (Life Technologies, Inc., Grand Island, N.Y.) and 5 ml of the serum-free OPTI-MEM® containing 15 μg/ml of LIPOFECTIN® reagent (a 1:1 liposome formulation of the cationic lipid DOTMA and DOPE, Life Technologies, Inc.) was added. At that time, 300 nM of oligonucleotide was added and swirled vigorously. After a 4-5 hour incubation at 37° C., the solution was removed and fresh maintenance medium containing 10% fetal bovine serum was added. The cells were again incubated overnight at 37° in 5% CO2, after which the cells were assayed for EGFR MRNA expression or cell growth.
Total mRNA was extracted from the cells. For SKOV3 cells, cells were washed twice with PBS and 1-2 ml of RNAZOL B® (Tel-Test, Inc., Friendswood Tex.) was added. An incubation at 4° C. for 5-30 minutes was done and the cells were scraped into an Eppendorf tube. This solution was frozen at -80° C. for 20 minutes, thawed and chloroform (200 μl/ml) was added. The solution was centrifuged at 12,000×g for 15 minutes at 4° C. and the aqueous layer was transferred to a clean Eppendorf tube. An equal volume of isopropanol was added and incubated at room temperature for 15 minutes. Another centrifugation at 12,000×g for 15 minutes at 4° C. was done. The pellet was washed with 500 μl of 75% ethanol and centrifuged at 7500×g for 5 minutes at 4° C. As much of the supernatant as possible was removed and the pellet was resuspended in 30 μl of double distilled water. For A549 cells, total mRNA was extracted using a guanidinium/cesium chloride extraction protocol as described by Dean et al., J. Biol. Chem., 1994, 269, 16416. Ten μg of this mRNA was resolved on a 1.0% agarose gel containing 3.0% formaldehyde and transferred to a nylon membrane. […] The membrane was exposed to autoradiography film at -80° C. and the MRNA bands quantitated using a densitometer (Molecular Dynamics). Blots were stripped of radioactivity by boiling and then reprobed with a ^32 P-labeled control probe which hybridized either to G3PDH (Clontech Laboratories, Inc., Palo Alto Calif.) or β-actin (Ambion, Austin Tex.).
Some of the oligonucleotides in Table 1 were tested for their ability to inhibit EGFR mRNA expression in A549 human lung carcinoma cells and SKOV3 human ovarian carcinoma cells, both of which overexpress the EGFR. […] Total RNA was extracted and quantitated by Northern blot analysis, using PCR-generated EGFR cDNA probes. Bands were quantitated on a densitometer and normalized to control probe bands (G3PDH for the A549 cells and β-actin for the SKOV3 cells). […]

[6] = system: EGFR protein; assay: EGFR protein synthesis, metabolic labeling and immunoprecipitation, SKOV3 cells; type: cell-based, human; settings: 35S-methionine labeling, compared to untreated cells
Method: Human SKOV3 ovarian carcinoma cells were obtained from the American Type Culture Collection. They were grown in McCoy's 5A medium containing NaHCO3, 10% fetal bovine serum and antibiotics and routinely passaged. A549 human lung carcinoma cells were routinely passaged in DMEM medium supplemented with 10% fetal bovine serum.
SKOV3 cells were treated with the indicated oligonucleotides in serum-free, methionine-free OPTI-MEM® medium for 2.5 hours. The medium was then replaced with methionine-free OPTI-MEM® containing ^35 S-methionine (100 μCi/ml) and 2% dialyzed fetal bovine serum for 10 hours. Cell extracts were prepared as described by Kumar et al., Proc. Natl. Acad. Sci. USA, 1992, 89, 6599. Aliquots containing equal amounts of trichloroacetic acid-precipitable counts per minute were subjected to immunoprecipitation with anti-EGFR monoclonal antibody 528/rabbit anti-mouse IgG/protein A-Sepharose conjugate. Kumar et al., Proc. Natl. Acad. Sci. USA, 1992, 89, 6599 and Korutla et al., Carcinogenesis, 1995, 16, 1741. Lysates containing equal amounts of protein were also resolved on a 10% SDS-polyacrylamide gel and stained with Coomassie blue.
ISIS 10563, ISIS 12876 and ISIS 12877 were added to exponentially growing SKOV3 cells. Cells were metabolically labeled with ^35 S-methionine and newly synthesized EGFR protein was immunoprecipitated. […] Coomassie blue staining confirmed that proteins other than EGFR were not affected by treatment of cells with antisense oligonucleotides.

[7] = 300 nM, scrambled control, 10 kb band

| Compound | % Inhibition of EGFR mRNA (10 kb band) [3] | % Inhibition of EGFR mRNA (10 kb band) [4] | reduction of EGFR mRNA expression, ranking in words [5] | reduction of EGFR protein production / EGFR synthesis [6] | also measured |
| --- | --- | --- | --- | --- | --- |
| COc1cc2ncnc(Nc3cccc(Br)c3)c2cc1OC [PD153035] |  |  |  |  | inhibition of the growth of A431 cells in nude mice [1]: can inhibit the growth of A431 cells in nude mice; inhibition of EGFR tyrosine kinase activity [2]: inhibits EGFR tyrosine kinase activity |
| ISIS 10561: TGTCGGCCCCACAGGCTCGG; phosphorothioate 2'-deoxy; coding region, Ullrich 1110-1129 (antisense dT*dG*dT*dC*dG*dG*dC*dC*dC*dC*dA*dC*dA*dG*dG*dC*dT*dC*dG*dG) | greater than 50% | 45% |  |  | % Inhibition of EGFR mRNA (10 kb band) ([3]; listed as 10561): 75% |
| ISIS 10563: CCCCAGCAGCTCCCATTGGG; phosphorothioate deoxyoligonucleotide; coding region, Ullrich 769-788 (antisense dC*dC*dC*dC*dA*dG*dC*dA*dG*dC*dT*dC*dC*dC*dA*dT*dT*dG*dG*dG) | 95% | 61% | greatest amount of reduction of EGFR mRNA expression in both cell types | 90-98% |  |
| ISIS 10565: CTCGGCTGACATTCCGGCAA; phosphorothioate 2'-deoxy; coding region, Ullrich 1761-1780 (antisense dC*dT*dC*dG*dG*dC*dT*dG*dA*dC*dA*dT*dT*dC*dC*dG*dG*dC*dA*dA) | 43% | 33% |  |  |  |
| ISIS 12139: GAGTTCGCGTCCTTTCTCCA; scrambled control; phosphorothioate (all phosphorothioate, sugars by position and methylation of C not given here) [reference compound] |  |  |  | 10% | increase in EGFR mRNA compared to untreated controls [3, 7]: 18%; increase in EGFR mRNA compared to untreated controls [4, 7]: 39% |
| ISIS 12875: CCCCAGCAGCTCCCAUUGGG; 2'-fluoro; phosphorothioate; coding region, Ullrich 769-788 (all phosphorothioate, sugars by position and methylation of C not given here; 2'-fluoro modification, further chemistry not fully specified) | 77% | 57% | slightly less potent |  |  |
| ISIS 12876: CCCCAGCAGCTCCCATTGGG; 5-methyl C; phosphorothioate; coding region, Ullrich 769-788 (all C 5-methyl, all phosphorothioate, sugars by position not given here) | 97% | 66% | greatest amount of reduction of EGFR mRNA expression in both cell types | 90-98% |  |
| ISIS 12877: CUCGGCTGACATTCCGGCAA; 2'-fluoro; phosphorothioate (all phosphorothioate, sugars by position and methylation of C not given here; 2'-fluoro modification, further chemistry not fully specified) | 93% | 61% | greatest amount of reduction of EGFR mRNA expression in both cell types | 90-98% |  |
| ISIS 12878: GAGGCGTTCTCCTUUCUCCA; 2'-O-propyl; phosphorothioate; coding region, Ullrich 2966-2985 (all phosphorothioate, sugars by position and methylation of C not given here; 2'-O-propyl modification, further chemistry not fully specified) | greater than 50% | 22% |  |  | % Inhibition of EGFR mRNA (10 kb band) ([3]; listed as 12878): 66% |
